PubChem BioAssay AID2060910 (Molecular Pharmacology Branch, DTP, NCI, 2025)

Tested on: 242566-281-R-J2-PDC complex spheroid viability
Experiment: Anticancer human tumor 242566-281-R-J2-PDC patient-derived pancreatic carcinoma cell line growth inhibition [RAS]
Settings: for IC50: curve of first compound; for viability, T/C: stronger effect = lower value
Procedure, shortened: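 Tumour cells grown as complex spheroids with HUVEC endothelial cells and mesenchymal stem cells, treated with RAS pathway inhibitor combinations. Each agent spans half-log steps from near clinical Cmax, or 10 microM where Cmax is unknown.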

[1] = second compound 0.00316 µM, first compound 0.0316 µM
[2] = second compound 0.00316 µM, first compound 0.1 µM
[3] = second compound 0.01 µM, first compound 0.0316 µM
[4] = second compound 0.01 µM, first compound 0.1 µM
[5] = second compound 0.0316 µM, first compound 0.0316 µM
[6] = second compound 0.0316 µM, first compound 0.1 µM
[7] = second compound 0.1 µM, first compound 0.0316 µM
[8] = second compound 0.1 µM, first compound 0.1 µM
[9] = second compound 0.316 µM, first compound 0.0316 µM
[10] = second compound 0.316 µM, first compound 0.1 µM
[11] = second compound 1 µM, first compound 0.0316 µM
[12] = second compound 1 µM, first compound 0.1 µM
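Also: spheroids exposed to compound for 7 days before readout.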
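For viability, T/C in this document: 100% = DMSO vehicle control wells.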

## CC(C)NCC(C(=O)N1CCN(c2ncnc3c2C(C)CC3O)CC1)c1ccc(Cl)cc1 (centres undefined) + C=CC(=O)N1CCN(c2nc(OCC3CCCN3C)nc3c(F)c(-c4nc(N)cc(C)c4C(F)(F)F)c(Cl)cc23)C(C)C1
Second compound 0.00316 µM
  IC50: > 10 µM
Second compound 0.01 µM
  IC50: > 10 µM
Second compound 0.0316 µM
  IC50: > 10 µM
Second compound 0.1 µM
  IC50: > 10 µM
Second compound 0.316 µM
  IC50: > 10 µM
Second compound 1 µM
  IC50: > 10 µM
[1]
  viability, T/C: 115%
[2]
  viability, T/C: 99.9%
Second compound 0.00316 µM, first compound 0.316 µM
  viability, T/C: 106%
Second compound 0.00316 µM, first compound 1 µM
  viability, T/C: 90.6%
Second compound 0.00316 µM, first compound 3.16 µM
  viability, T/C: 81.9%
Second compound 0.00316 µM, first compound 10 µM
  viability, T/C: 84.9%
[3]
  viability, T/C: 100%
[4]
  viability, T/C: 122%
Second compound 0.01 µM, first compound 0.316 µM
  viability, T/C: 102%
Second compound 0.01 µM, first compound 1 µM
  viability, T/C: 98.7%
Second compound 0.01 µM, first compound 3.16 µM
  viability, T/C: 91.2%
Second compound 0.01 µM, first compound 10 µM
  viability, T/C: 89.3%
[5]
  viability, T/C: 107%
[6]
  viability, T/C: 117%
Second compound 0.0316 µM, first compound 0.316 µM
  viability, T/C: 90.9%
Second compound 0.0316 µM, first compound 1 µM
  viability, T/C: 93.1%
Second compound 0.0316 µM, first compound 3.16 µM
  viability, T/C: 90.9%
Second compound 0.0316 µM, first compound 10 µM
  viability, T/C: 86.2%
[7]
  viability, T/C: 91.8%
[8]
  viability, T/C: 104%
Second compound 0.1 µM, first compound 0.316 µM
  viability, T/C: 95.1%
Second compound 0.1 µM, first compound 1 µM
  viability, T/C: 89.1%
Second compound 0.1 µM, first compound 3.16 µM
  viability, T/C: 87.5%
Second compound 0.1 µM, first compound 10 µM
  viability, T/C: 77.7%
[9]
  viability, T/C: 98.6%
[10]
  viability, T/C: 114%
Second compound 0.316 µM, first compound 0.316 µM
  viability, T/C: 97.5%
Second compound 0.316 µM, first compound 1 µM
  viability, T/C: 88%
Second compound 0.316 µM, first compound 3.16 µM
  viability, T/C: 88%
Second compound 0.316 µM, first compound 10 µM
  viability, T/C: 81.2%
[11]
  viability, T/C: 99.6%
[12]
  viability, T/C: 133%
Second compound 1 µM, first compound 0.316 µM
  viability, T/C: 107%
Second compound 1 µM, first compound 1 µM
  viability, T/C: 101%
Second compound 1 µM, first compound 3.16 µM
  viability, T/C: 77.6%
Second compound 1 µM, first compound 10 µM
  viability, T/C: 82.9%

## CC(C)n1nc(-c2ccc3oc(N)nc3c2)c2c(N)ncnc21 + C=CC(=O)N1CCN(c2nc(OCC3CCCN3C)nc3c(F)c(-c4nc(N)cc(C)c4C(F)(F)F)c(Cl)cc23)C(C)C1
Second compound 0.00316 µM
  IC50: > 0.1 µM
Second compound 0.01 µM
  IC50: > 0.1 µM
Second compound 0.0316 µM
  IC50: > 0.1 µM
Second compound 0.1 µM
  IC50: > 0.1 µM
Second compound 0.316 µM
  IC50: > 0.1 µM
Second compound 1 µM
  IC50: > 0.1 µM
Second compound 0.00316 µM, first compound 0.000316 µM
  viability, T/C: 93.1%
Second compound 0.00316 µM, first compound 0.001 µM
  viability, T/C: 154%
Second compound 0.00316 µM, first compound 0.00316 µM
  viability, T/C: 91.4%
Second compound 0.00316 µM, first compound 0.01 µM
  viability, T/C: 78.9%
[1]
  viability, T/C: 58.5%
[2]
  viability, T/C: 53.8%
Second compound 0.01 µM, first compound 0.000316 µM
  viability, T/C: 111%
Second compound 0.01 µM, first compound 0.001 µM
  viability, T/C: 150%
Second compound 0.01 µM, first compound 0.00316 µM
  viability, T/C: 94.9%
Second compound 0.01 µM, first compound 0.01 µM
  viability, T/C: 72.7%
[3]
  viability, T/C: 55.5%
[4]
  viability, T/C: 53.6%
Second compound 0.0316 µM, first compound 0.000316 µM
  viability, T/C: 101%
Second compound 0.0316 µM, first compound 0.001 µM
  viability, T/C: 138%
Second compound 0.0316 µM, first compound 0.00316 µM
  viability, T/C: 83.4%
Second compound 0.0316 µM, first compound 0.01 µM
  viability, T/C: 79.2%
[5]
  viability, T/C: 67.1%
[6]
  viability, T/C: 54.6%
Second compound 0.1 µM, first compound 0.000316 µM
  viability, T/C: 98.5%
Second compound 0.1 µM, first compound 0.001 µM
  viability, T/C: 111%
Second compound 0.1 µM, first compound 0.00316 µM
  viability, T/C: 89.9%
Second compound 0.1 µM, first compound 0.01 µM
  viability, T/C: 84.3%
[7]
  viability, T/C: 62%
[8]
  viability, T/C: 55.7%
Second compound 0.316 µM, first compound 0.000316 µM
  viability, T/C: 109%
Second compound 0.316 µM, first compound 0.001 µM
  viability, T/C: 107%
Second compound 0.316 µM, first compound 0.00316 µM
  viability, T/C: 107%
Second compound 0.316 µM, first compound 0.01 µM
  viability, T/C: 81.5%
[9]
  viability, T/C: 69.5%
[10]
  viability, T/C: 55.3%
Second compound 1 µM, first compound 0.000316 µM
  viability, T/C: 109%
Second compound 1 µM, first compound 0.001 µM
  viability, T/C: 140%
Second compound 1 µM, first compound 0.00316 µM
  viability, T/C: 86.4%
Second compound 1 µM, first compound 0.01 µM
  viability, T/C: 88.3%
[11]
  viability, T/C: 75.2%
[12]
  viability, T/C: 55.7%
